Here are results for three molecules from patent US4868291A, “4'-deshydroxyepipodophyllotoxin glucosides: synthesis and use” (Bristol-Myers Company, priority 1987, dated 1989).

Converted amounts (≈) assume the structure as drawn. Read-outs that look alike come from different tables or passages of the source.

As a reminder, the IC50 is the concentration needed to halve the response being measured.

Data set [1] concerns variety of cancers including small cell lung cancer, non-lymphocytic leukemia and non-seminomatous testicular cancer. The conditions noted are these: clinical, background statement; cited from earlier work.
For data set [2] the following is noted: Haim et al. 1986; cited from earlier work.
In data set [3] the test system is HCT/VP35. Briefly: In vitro cytotoxicity assay, HCT/VP35 human colon, etoposide resistant. Particulars: dissolved in DMSO, two unlabelled lines of values. In kind it is cell-based. How it is done:
(§1) The in vitro cytotoxicity assay involves growing various mammalian tumor cells, including human tumor cells, on Microtiter plates employing established tissue culture methods. The concentration of each compound required to inhibit cell growth by 50% (IC50) is then determined by a four-fold serial dilution technique. The validity of the method has been supported by a report published in the "Proceedings of the American Association for Cancer Research", 1984, 25: 1891 (Abst. No. 328). Tumor cells of the following type were employed: B16-F10 murine melanoma, Moser human colon, SW900 human lung resistant to teniposide (VM) and etoposide (VP) and three human colon tumor cell lines, i.e. HCT-116, HCT-VM and HCT-VP, the latter two being resistant to teniposide (VM) and etoposide (VP), respectively. IC50 values less than […] are a positive indicator of antitumor activity. Table I presents IC50 values against the above-mentioned cell lines.

For data set [4], the system named is B16-F10. Briefly: In vitro cytotoxicity assay, B16-F10 murine melanoma. The data set is classed as cell-based. Particulars: dissolved in DMSO, two unlabelled lines of values. Here is the method: as §1
Data set [5] has as its system MOSER. Briefly: In vitro cytotoxicity assay, Moser human colon. Particulars: dissolved in DMSO, two unlabelled lines of values. The data set is classed as cell-based. How it is done:
as §1

Data set [6] has as its system P388 murine leukemia. Briefly: Antitumor activity against murine P388 leukemia in CDF1 mice. The data set is classed as in vivo. How it is done: Female CDF1 mice were implanted intraperitoneally with a tumor inoculum of 10^6 ascites cells of P388 murine leukemia and treated with various doses of the compound of Example 4; four mice were used for each dose level and ten were used as saline-treated control. The compound was administered by intraperitoneal injection in two injections on day 1 and day 5. Antitumor activity was expressed as %T/C which is the ratio of the median survival time (MST) of the drug-treated group to the MST of the saline-treated control group. A compound showing a %T/C of 125 or greater is generally considered to have significant antitumor activity in the P388 test. The experiment lasted 31 days at the end of which time the number of survivors was noted.

`COc1cc([C@@H]2c3cc4c(cc3[C@@H](O[C@@H]3O[C@@H]5CO[C@@H](C)O[C@H]5[C@H](O)[C@H]3O)[C@H]3COC(=O)[C@H]23)OCO4)cc(OC)c1O` [Etoposide]: the “activity in the treatment of cancers” value in data set [1] is given as “active in the treatment of a variety of cancers”. In data set [2], the “metabolites formed on peroxidative activation” value is “formation of two metabolites, one of which has been identified as the corresponding orthoquinone III”.
Consider `COc1cc(OC)cc([C@@H]2c3cc4c(cc3[C@@H](O[C@@H]3O[C@@H]5CO[C@@H](C)O[C@H]5[C@H](O)[C@H]3O)[C@H]3COC(=O)[C@H]23)OCO4)c1` [Example 4, 4'-Desmethoxyetoposide], for which the IC50 worked out at 3.5 µg/mL (≈ 6.11 µM) in data set [3] (HCT/VP35, resistant to etoposide); 3.3 µg/mL (≈ 5.76 µM) in data set [3] (Homo sapiens, HCT/VP35, HCT/VP35, resistant to etoposide, read-out: IC50); 27 µg/mL (≈ 47.2 µM) in data set [4] (B16-F10); 23 µg/mL (≈ 40.2 µM) in data set [4] (Mus musculus, B16-F10, B16-F10, read-out: IC50); 60 µg/mL (≈ 105 µM) in data set [5] (Homo sapiens, read-out: IC50); 31 µg/mL (≈ 54.1 µM) in data set [5]. Besides, the “MST (median survival time)” value in data set [6] (150 mg/kg/inj., i.p., days 1 and 5, dose with maximum effect, saline control 10.0 days) worked out at 17.5 days. Moreover, the “Day 5 No. mice alive/total” value in data set [6] (150 mg/kg/inj., i.p., day 5) is listed as 4/4. In addition, in data set [6] (day 31, test or control group), the “mice alive at day 31” value is “no mice were alive”. Besides, the “% T/C (MST treated / MST control)” value in data set [6] (maximum %T/C, at 150 mg/kg/inj., i.p., days 1 and 5, 125 or greater is significant) turned out to be 175%.
For the molecule `COc1cc([C@@H]2c3cc4c(cc3[C@@H](O[C@@H]3O[C@@H]5CO[C@@H](c6cccs6)O[C@H]5[C@H](O)[C@H]3O)[C@H]3COC(=O)[C@H]23)OCO4)cc(OC)c1O` [Teniposide], the “activity in the treatment of cancers” value in data set [1] is “active in the treatment of a variety of cancers”. In data set [2], the “metabolites formed on peroxidative activation” value is “formation of two metabolites, one of which has been identified as the corresponding orthoquinone III”.
